The values below come from patent US8598212B2, “Therapeutic agent and preventative agent for alzheimer's disease” (Toray Industries, Inc., priority 2010, dated 2013).

Counter-ions that a name gives are not always drawn.

Assay [1] concerns mouse partial sciatic nerve ligation model. The experiment in a line: von Frey test in mouse partial sciatic nerve ligation model (Seltzer model). The assay is classed as in vivo, ICR mice. The conditions noted are these: for inhibition in vivo at 10 mg/kg / von Frey Total Score of 1 Hour after Oral Administration (Mean ± S.E.), Test Compound-Administered Group: dose 10 mg/kg oral; for von Frey Total Score of 1 Hour after Oral Administration (Mean ± S.E.), Test Compound-Administered Group: n = 5-6, 7 days after ligation. As to the method: As a reference example, the mouse partial sciatic nerve ligation model (Seltzer model), by which neuropathic pain can be evaluated, was used to evaluate the analgesic effect of Compound (I).
Mouse models of partial sciatic nerve ligation were prepared according to Seltzer's method (Malmberg et al., Pain, 1998, vol. 76, p. 215-222). Male ICR mice of 5 weeks old were anesthetized with Sodium pentobarbital (70 mg/kg, i.p.), and thereafter, the sciatic nerve at the femoral region of the right hind limb of each mouse was exposed, and the sciatic nerve was triply ligated tightly with silk suture of 8-0 (NATSUME SEISAKUSHO) under microscope so that only half thickness of the nerve was trapped in the ligature, which mice were used as a ligation group. The mice whose sciatic nerves were exposed but not ligated were used as a sham operation group.
Evaluation of neuropathic pain (hereinafter “von Frey test”) was carried out as follows. Mice were conditioned for at least 1 hour in an acryl cage for measurement (NATSUME SEISAKUSHO) placed on a wire net. Thereafter, using a filament (North Coast Medical, Inc. CA, USA) which exerted a pressure of 0.16 g, the mice were subjected to mechanical tactile stimulus by applying the filament to the plantar surface of both hindpaws 3 times, each for 3 seconds, with an interval of 3 seconds.
Seven days after the sciatic nerve ligation, test compounds were orally administered to the mice. Prior to the oral administration of the test compounds, the von Frey test was carried out to split the animals of the ligation group into vehicle groups and test compound-administered groups so that the sums of the total scores of the groups were equalized. The mice of the sham operation groups, the vehicle groups and the test compound-administered groups were subjected to the von Frey test 1 hour, 2 hours and 3 hours after oral administration of a vehicle or a test compound, and the obtained scores were used as an indicator of analgesic effect. As a vehicle of test compound solution or suspension, dimethyl sulfoxide (hereinafter “DMSO”):Tween80:distilled water (1:1:8), 27% hydroxypropyl-β-cyclodextrin (hereinafter “27% HP-β-CD”) or 0.5% MC was used.
For evaluation of drug efficacy, data were statistically processed by the unpaired multigroup t test (adjusted by Dunnett), taking the vehicle group of each measurement time as a control.

Assay [2] deals with Alzheimer's disease model rats. The experiment in a line: Morris water maze test in Alzheimer's disease model rats (basal ganglia destroyed with ibotenic acid). The conditions noted are these: 30 mg/kg oral once per day from Day 0 after destruction treatment, not given just before trials; Day 10 to Day 12; compared to vehicle-administered group. The assay is classed as in vivo, Wistar rats.

The subject of assay [3] is rats with medial septal lesions. The conditions noted are these: 0.5 mg/kg; Ogura et al., 1998; cited from earlier work.
In assay [4] the test system is patients with complex regional pain syndrome. The conditions noted are these: Sinia et al., Clin J Pain, 2007; cited from earlier work.
In assay [5] the test system is rat diabetic neuropathic pain model. To be noted: Chen et al., 2009; cited from earlier work.
In assay [6] the test system is rat neuropathic pain model. To be noted: Clayton et al., Anesthesiology, 2007; cited from earlier work.
Where [7] appears, read: Mus musculus, po, 1 h, relative to vehicle and sham operation groups, read-out: Score Improvement.

`CCc1ccc(-c2cc(C3(O)CCC(O)CC3)nn2-c2ccc(OC)cc2)cc1` (centres unmarked) [Compound 48]: the inhibition in vivo at 10 mg/kg in assay [1] (setting [7]) turned out to be 83%. Moreover, the “von Frey Total Score of 1 Hour after Oral Administration (Mean ± S.E.), Test Compound-Administered Group” value in assay [1] amounted to 1.0 ± 0.5. On to `COc1ccc(-n2nc(C3(O)CCC(O)CC3)cc2-c2ccc(C)cc2)cc1` (single isomer, unassigned) [Compound 3, 1-(1-(4-methoxyphenyl)-5-(p-tolyl)-1H-pyrazol-3-yl)cyclohexan-cis-1,4-diol], for which, in assay [2], the “Escape latency in Morris water maze” value is reported as “statistically significantly shortened”. For the compound `COc1ccc(-c2nc(C3(O)CCC(O)CC3)oc2-c2ccc(OC)cc2)cc1` (stereo not drawn) [Compound 43, 4-(4,5-bis(4-methoxyphenyl)oxazol-2-yl)cyclohexan-cis-1,4-diol], the inhibition in vivo at 10 mg/kg in assay [1] (setting [7]) is 100%. Consider `COc1ccc(-n2nc(C3(O)CCC(O)(C(F)(F)F)CC3)cc2-c2ccc(C)cc2)cc1` (stereo not drawn) [Compound 10, 1-(1-(4-methoxyphenyl)-5-(p-tolyl)-1H-pyrazol-3-yl)-4-(trifluoromethyl)cyclohexan-cis-1,4-diol], for which the inhibition in vivo at 1 mg/kg in assay [1] (Mus musculus, po, 1 h, dose 1 mg/kg oral, relative to vehicle and sham operation groups, read-out: Score Improvement) was determined as 78%. On to `COc1cc2c(cc1OC)C(=O)C(CC1CCN(Cc3ccccc3)CC1)C2` (centres unmarked) [donepezil hydrochloric acid salt], for which, in assay [3], the “effectiveness in the Morris water maze test” value is listed as “effective”. As for `COc1ccc(-n2nc(C3(O)CCC(O)CC3)cc2-c2ccc(C)nc2)cc1` (stereo not drawn) [Compound 15, 1-(1-(4-methoxyphenyl)-5-(6-methylpyridin-3-yl)-1H-pyrazol-3-yl)cyclohexan-cis-1,4-diol], in assay [1] (setting [7]), the inhibition in vivo at 10 mg/kg is 84%. In addition, in assay [1], the “von Frey Total Score of 1 Hour after Oral Administration (Mean ± S.E.), Test Compound-Administered Group” value stood at 1.0 ± 0.4. `COc1ccc(-n2nc(C3(O)CCC(O)CC3)cc2-c2ccc(C)c(F)c2)cc1` (centres unmarked) [Compound 55]: the inhibition in vivo at 3 mg/kg in assay [1] (Mus musculus, po, 1 h, dose 3 mg/kg oral, relative to vehicle and sham operation groups, read-out: Score Improvement) was found to be 93%. Turning to `COc1ccc(-n2nc(C3(O)CCC(O)CC3)cc2-c2ccc(C)cc2)cc1F` (centres unmarked) [Compound 54], in assay [1] (setting [7]), the inhibition in vivo at 10 mg/kg came to 83%. For `CC12CC3CC(C)(C1)CC(N)(C3)C2` [memantine], the analgesic effect entry in assay [4] and in assay [5] was “exhibits an analgesic effect” throughout. For `COc1cc2c(cc1OC)C(=O)C(CC1CCN(Cc3ccccc3)CC1)C2` (centres unmarked) [donepezil], the analgesic effect entry in assay [6] is reported as “exhibits an analgesic effect”. With `COc1ccc(-c2cc(C3(O)CCC(O)CC3)nn2-c2ccc(OC)cc2)cc1` (stereo not drawn) [Compound 8, 1-(1,5-bis(4-methoxyphenyl)-1H-pyrazol-3-yl)cyclohexan-cis-1,4-diol], in assay [1] (setting [7]), the inhibition in vivo at 10 mg/kg was 70%.
